The test system of the assay is rat anterior pituitary cells. The assay is described as follows: In vitro stimulation of ACTH and β-endorphin secretion by cultured rat pituitary cells, potency compared with oCRF (Standard) or r/hCRF. It counts as cell-based. As to the method: The cyclic CRF agonists are examined for their effects on the secretion of ACTH and β-endorphin in vitro and also in vivo. […] In vivo testing is carried out using the general procedure set forth in C. Rivier et al., Science, 218, 377 (1982).

SMILES strings stand for the structures. Like-named read-outs stand apart in the source and are kept apart here. Bridge positions count the residues as written; N and C are the ends. Square brackets hold non-standard residues; d marks the D form. Peptide text beside a SMILES is read from it. Nle = CCCC[C@H](N)C(=O)O

For the compound `CC[C@H](C)[C@H](NC(=O)[C@@H]1CCCN1C(=O)[C@@H]1CCCN1C(C)=O)C(=O)N[C@@H](CO)C(=O)N[C@@H](CC(C)C)C(=O)N[C@@H](CC(=O)O)C(=O)N[C@@H](CC(C)C)C(=O)N[C@H](C(=O)N[C@H](Cc1ccccc1)C(=O)N[C@@H](Cc1c[nH]cn1)C(=O)N[C@@H](CC(C)C)C(=O)N[C@@H](CC(C)C)C(=O)N[C@@H](CCCNC(=N)N)C(=O)N[C@@H](CCC(=O)O)C(=O)N[C@@H](CCSC)C(=O)N[C@@H](CC(C)C)C(=O)N[C@@H](CCC(=O)O)C(=O)N[C@@H](CCSC)C(=O)N[C@@H](C)C(=O)N[C@@H](CCCCN)C(=O)N[C@@H](C)C(=O)N[C@@H](CCC(=O)O)C(=O)N[C@@H](CCC(N)=O)C(=O)N[C@@H](CCC(=O)O)C(=O)N[C@@H](C)C(=O)N[C@@H](CCC(=O)O)C(=O)N[C@H]1CCC(=O)NCCCC[C@@H](C(=O)N[C@@H](CC(N)=O)C(=O)N[C@@H](CCCNC(=N)N)C(=O)N[C@@H](CC(C)C)C(=O)N[C@@H](CC(C)C)C(=O)N[C@@H](CC(C)C)C(=O)N[C@@H](CCC(=O)O)C(=O)N[C@@H](CCC(=O)O)C(=O)N[C@@H](C)C(N)=O)NC(=O)[C@H](C)NC(=O)[C@H](C)NC1=O)[C@@H](C)O` [(cyclo 30-33)[Ac-Pro^4, D-Phe^12, Glu^30, Lys^33]-AHC(4-41)] (Ac-PPISLDLT[dF]HLLREMLEMAKAEQEAEEAAKNRLLLEEA-NH2; lactam 27-30), the “in vitro potency to stimulate secretion of ACTH relative to the Standard” value (relative to the laboratory Standard (synthetic oCRF), cultured rat pituitary cells, limits in parentheses) is reported as “about 7.5 times”.

As to `CCCC[C@H](NC(=O)[C@H](CCC(=O)O)NC(=O)[C@@H](NC(=O)[C@H](CCCC)NC(=O)[C@H](CC(N)=O)NC(=O)[C@H](CCCNC(=N)N)NC(=O)[C@H](CC(C)C)NC(=O)[C@H](CC(C)C)NC(=O)[C@H](Cc1c[nH]cn1)NC(=O)[C@@H](Cc1ccccc1)NC(=O)[C@@H](NC(=O)[C@H](CC(C)C)NC(=O)[C@H](CC(=O)O)NC(=O)[C@@H](NC(=O)[C@H](CO)NC(=O)[C@@H](NC(=O)[C@H]1CCCN1C(=O)[C@@H]1CCCN1C(C)=O)[C@@H](C)CC)[C@@H](C)CC)[C@@H](C)O)[C@@H](C)CC)C(=O)N[C@@H](C)C(=O)N[C@@H](CCCNC(=N)N)C(=O)N[C@@H](CC(N)=O)C(=O)N[C@@H](CCC(=O)O)C(=O)N[C@@H](CC(N)=O)C(=O)N[C@@H](CCC(N)=O)C(=O)N[C@@H](CCCNC(=N)N)C(=O)N[C@@H](CCC(=O)O)C(=O)N[C@H]1CCC(=O)NCCCC[C@@H](C(=O)N[C@@H](CC(N)=O)C(=O)N[C@@H](CCCNC(=N)N)C(=O)N[C@@H](CCCCN)C(=O)N[C@@H](Cc2ccc(O)cc2)C(=O)N[C@@H](CC(C)C)C(=O)N[C@@H](CC(=O)O)C(=O)N[C@@H](CCC(=O)O)C(=O)N[C@H](C(N)=O)C(C)C)NC(=O)[C@@H](C)NC(=O)[C@H](C)NC1=O` [Example 8 A D-Ala^32 analog] (Ac-P[dP]ISIDLT[dF]HLLRN[Nle]IE[Nle]ARNENQREEA[dA]KNRKYLDEV-NH2; lactam 27-30), the “in vitro potency to stimulate secretion of ACTH relative to the Standard” value is recorded as “about 4.9 times”.

(Values after patent US5824771A, “Cyclic CRF agonists” (The Salk Institute for Biological Studies, priority 1997, dated 1998).)
